Experimental data: US12589160B2, “Peptide-derived therapeutics targeting KDM5C for the treatment of cancer” (NUVOBIO CORPORATION, priority 2019, dated 2026)

Experiments:
HCT 116 cells [1] = test: Cell viability, resazurin reduction assay; assay type: cell-based; conditions: for loss of cell viability: HCT 116, 10 μM, cell penetrating peptide by itself
Method: (§1) FIG. 7. Cellular EP4 inhibitor delivery and viability. (A) Diagrammatic representation of EP4 inhibitor peptide showing N-terminally tagged 6-carboxyfluorescein and C-terminally tagged TAT cell delivery peptide. (B) Immunofluorescence microscopy showing internalization of EP4-TAT peptide (shown in green) to HCT 116 cells imaged 24 hr post-treatment with inhibitor. (C) Cell viability following 10 μM treatment of EP4 peptide conjugated to cell penetrating peptides, TAT, PR9 and CPP.
Cell viability was measured using the Resazurin reduction assay which indirectly quantifies living cells through the metabolically active reduction of resazurin to fluorescent resorufin. This assay allows to maintain cells viability and, therefore, to monitor cell growth with time. Exponentially growing cells were seeded into 96-well plates at the density of 2.0×10^4 cells/mL and incubated overnight. The media was replaced with fresh media prior to inhibitor treatment. Cells were treated with […] of inhibitor peptide for 24 hr. The inhibitor peptide was diluted in the cell culture media (DMEM −/−) in the absence of serum from a 5 mM stock. All the treated cells were compared to the control (TAT alone peptide with equivalent quantity of DMSO) which were considered as 100% viable. One set of wells also prepared with medium only for background subtracting and instrument gain adjustment. The experiments were carried out in triplicate and expressed as mean±SD. A 10% resazurin solution (0.15 mg/ml stock dissolved in PBS, filter sterilized and stored protected from light at 4° C.) was then added to each well and incubated for 2 hr. The fluorescence was recorded using a multiwell plate reader (Perkin Elmer) at Ex. 560 nm and Em. 610 nm.
The cell penetrating peptide tagged EP4 inhibitors are then tested for loss of cell viability on colorectal carcinoma HCT 116 cell line at a 10 μM dose (FIG. 7C).

[2] = system: H3K4me3 levels in HCT 116 cells; test: Histone H3K4me3 status by western blot of histone extracts; assay type: cell-based; conditions: for global H3K4me3 levels: HCT 116
Method: FIG. 9. Comparison of KDM5 inhibitors, EP4-TAT and CPI-455. […] (B) Relative H3K4me3 levels were monitored in histone extracts from HCT 116 cells.
The EP4-TAT inhibitor from all the above experiments were tested for histone methylation status in HCT 116 cells. 3×10^6 cells were plated in 10 cm dish and incubated overnight. Cells were then treated with the inhibitors at various concentrations (0.001 to 15 μM). Cells (5×10^6 cells/mL), 24 hr of post dosing, were collected in 15 mL falcon tube and centrifuged at 300×g for 10 min. The supernatant was discarded and the cells are washed with iced cold PBS. The cell pellet is flash-frozen in liquid nitrogen and stored at −80° C. Histone isolation is done using standard protocol. To summarize, cells were re-suspended in 1 mL hypotonic lysis buffer (10 mM Tris-HCl pH 8, 1 mM KCl, 1.5 mM MgCl2 and 1 mM DTT) containing protease inhibitor. The cells were transferred to 1.5 mL tube and incubated for 30 min on rotor at 4° C. to promote hypotonic swelling and lysis. The intact nuclei are collected by centrifugation at 10,000×g for 10 min in a cooled tabletop centrifuge. The supernatant is entirely discarded and pellets were re-suspended completely in 600 μL 0.4N H2SO4 and incubated overnight on rotor at 4° C. The nuclear debris were removed by centrifugation at 16,000×g for 10 min. The supernatant containing the histones were transferred to a fresh 1.5 mL tube and precipitated by adding 195 μL TCA (33%) drop by drop. The reaction is incubated at 4° C. overnight under rotation. The histones were pelleted by centrifugation at 16,000×g for 10 min. After complete removal of the supernatant carefully, the histone pellets were washed with ice-cold acetone to remove the left-over acids without disturbing the pellet. Finally, the pellets were air dried for 30 min at room temperature. The histone pellets were dissolved in 100 μL milliQ water and stored frozen at −20° C. Samples of 1, 3 and 5 μL of histones were separated on 15% SDS-PAGE gel and stained with Coomassie Brilliant Blue and characterized on the quality and concentration of the histone. The locations of the linker histone H1 and the core histones H3, H2B, H2A and H4 were noted.
For western blot, of total of 1 μL of histones were separated on 15% SDS-PAGE and transferred overnight at 15V on PVDF membrane. Following blocking with 5% nonfat dry milk in 1×TBST for 1 hr, the membrane containing histones lanes treated with inhibitor, were probed with H3K4Me3 (Abcam) primary antibody (1:2500) in 1×PBST. Both the membranes were incubated overnight at 4° C. under rotation. […] Histone proteins were detected by Supersignal™ West Pico PLUS Chemiluminescent substrate (ThermoFisher Scientific) using the Chemidoc XRS+ imaging system (BioRad). […]

KDM5 = conditions: given as 'in vivo'; Vinogradova et al., 2016; read-out: IC50 of KDM5 inhibition; cited from earlier work
HCT 116 cells [3] = test: Flow cytometry, PI staining (subG1 / apoptosis); assay type: cell-based; conditions: HCT 116, 2 μM
Method: FIG. 8. Global cell cycle distribution in EP4-TAT treated HCT 116 cells. EP4-TAT increases global H3K4me3 levels in HCT 116 cells. (A) Two-parameter flow cytometric analysis of BrdU incorporation and DNA content was performed following a 24 hr exposure of 2 μM and 5 μM EP4-TAT to HCT 116 cells. (B) The proportion of propidium iodine stained cells were represented in each phase of the cell cycle cell cycle and (C) dose-response correlation of BrdU positive cells were represented. These values are expressed relative to untreated controls. Each value in B, C represents the mean (+/−SEM) determined from 3 independent experiments.
A total of 0.3×10^6 HCT 116 cells were plated in 6 well-plate and incubated overnight. Cells were treated with the inhibitor, DMSO and TAT alone controls. For each condition, approximately 1×10^6 HCT 116 cells were collected along with the floating cells in the media by centrifugation at 300×g for 10 min. The cells were then washed with 5 mL of ice-cold PBS and re-suspended in 0.5 mL of ice-cold PBS. […] The PI-treated cells were incubated at 37° C. for 30 min and then analyzed by a flow cytometry (BD Accuri™ C6 Plus). […]
To determine whether loss in cell viability was associated with increased apoptosis, HCT 116 cells were treated with 2 μM of EP4-TAT and analyzed by PI staining.

NCI60 cancer cell lines = test: NCI60 cancer panel screen (SRB staining); assay type: cell-based; conditions: 48 h, normalized to TAT-alone; SNB-75, A498, RXF393, UO-31, HOP-92, NCI-226, EKVX
Method: FIG. 10. NCI60 cancer panel screen of EP4-TAT. EP4-TAT and TAT-alone peptides were sent to the National Cancer Institute—Developmental Therapeutics program for screening effect on cell growth on the NCI60 cancer panel. Cell growth was monitored post-treatment with peptide in a dose-responsive manner (n=4). EP4-TAT effects were normalized to TAT-alone effects to control for delivery peptide. Following drug addition, the plates were incubated for an additional 48 hours at 37° C., 5% CO2, 95% air, and 100% relative humidity. Cell growth was monitored by Sulforhodamine B (SRB) staining. GI50 values are defined at the concentration of EP4-TAT that decreased cell growth by 50%.
Following the receipt at the NCI, cell-active EP4-TAT was be tested for its effects on cell viability in a dose-responsive manner in the complete panel. The effect of EP4-TAT on cell viability was carried out using Sulforhodamine B (SRB) staining in all 60 cell lines (n=4). Using several measurements [time zero (Tz), control growth (C), and growth at the five inhibitor concentrations (Ti)], the percentage growth will be calculated at each inhibition concentration. […]

HCT 116 cells [4] = test: Internalization of FITC-labelled peptides (fluorescence microscopy); assay type: cell-based; conditions: HCT 116, 10 μM, 24 hr
Method: as §1
To evaluate the internalization of FITC-labelled peptides, exponentially growing HCT 116 cells were seeded on 6 well plate at a density of 2×10^5 cells per well and incubated overnight. After overnight incubation, the media (DMEM with penstrep and 10% FBS) was replaced with fresh media supplemented with 10 μM FITC-labelled inhibitor peptides. Following the incubation (24 hr), cells were washed three times with ice cold PBS to remove the excess extracellular complexes. Cells were then stained with Hoechst dye (1:2000 dilution from 10 mg/mL stock in PBS) directly adding sufficient staining solution to the well. Cells were incubated for 10 min with the dye, protected from light. The staining solution is discarded and the cells were washed 3 times with PBS and imaged directly under fluorescent microscope.
Our EP4 KDM5C inhibitor peptide were tested for a decrease in cell viability. […]

For FFLIPKGRRRRRRRRR [PR9], the “loss of cell viability” value (HCT 116 cells [1]) was 30%.

For CPI-455 [reference compound], the “global H3K4me3 levels” value [2] is given as “increase global H3K4me3 levels” and the IC50 (KDM5) is given as ~25 µM.

For “TEDSKTHHH(SEQ ID NO: 4){6-aminohexanoic acid}GRKKRRQRRRPPQ(SEQ ID NO: 45) (TEDSKTHHHGRKKRRQRRRPPQ) [EP4-TAT]”, the “loss of cell viability (comparison of cell penetrating peptide tags)” value (HCT 116 cells [1]; HCT 116, 10 μM dose) was “maximum and consistent loss of cell viability”, the “percentage of subG1 peak” value (HCT 116 cells [3]) was 52.8% and the “global H3K4me3 levels” value [2] was “increase global H3K4me3 levels”. For the same substance, the “demethylation of histone H3K4 tri-methylation” value ([2]; HCT 116, 25 nM) was “inhibited”, the “cellular KDM5C inhibition compared with CPI-455” value ([2]; HCT 116, relative H3K4me3 levels) was “more effective” and the “growth inhibitory (GI50) effect” value (NCI60 cancer cell lines) was “growth inhibitory (GI50) effect in 7 lines”. The cellular internalization (HCT 116 cells [4]) was “internalization”.

With “RRWRRWRRWRR [CPP, cell penetrating peptide, chemically synthesized, cationic]” the “loss of cell viability” value (HCT 116 cells [1]) was 50%.
